Test results: ChEMBL document CHEMBL1144592, “Synthesis and antimicrobial activities of Schiff bases derived from 5-chloro-salicylaldehyde” (2007)
Values after ≈ are worked out from the molar mass of the structure shown.

Key:
Format in all cases: functional
Pseudomonas fluorescens = assay: Antibacterial activity against Pseudomonas fluorescens after 24 hrs by MTT colorimetric method
Candida albicans = assay: Antifungal activity against Candida albicans after 48 hrs by MTT colorimetric method
Escherichia coli = assay: Antibacterial activity against Escherichia coli after 24 hrs by MTT colorimetric method
Trichophyton rubrum = assay: Antifungal activity against Trichophyton rubrum after 48 hrs by MTT colorimetric method
Bacillus subtilis = assay: Antibacterial activity against Bacillus subtilis after 24 hrs by MTT colorimetric method
Aspergillus niger = assay: Antifungal activity against Aspergillus niger after 48 hrs by MTT colorimetric method
Staphylococcus aureus = assay: Antibacterial activity against Staphylococcus aureus after 24 hrs by MTT colorimetric method

Compound | MIC (Pseudomonas fluorescens) [µg/mL] | MIC (Candida albicans) [µg/mL] | MIC (Escherichia coli) [µg/mL] | MIC (Trichophyton rubrum) [µg/mL] | MIC (Bacillus subtilis) [µg/mL] | MIC (Aspergillus niger) [µg/mL] | MIC (Staphylococcus aureus) [µg/mL]
Oc1ccc(Cl)cc1/C=N/C1CCCC1 | 3.4 (≈ 15.2 µM) | > 50 | 4.1 (≈ 18.3 µM) | > 50 | > 50 | > 50 | > 50
Oc1ccc(Cl)cc1/C=N/Cc1cccnc1 | 12.5 (≈ 50.7 µM) | > 50 | > 50 | > 50 | > 50 | > 50 | 19.5 (≈ 79 µM)
Oc1ccc(Cl)cc1/C=N/CCN1CCOCC1 | 2.5 (≈ 9.3 µM) | > 50 | 3.5 (≈ 13 µM) | > 50 | > 50 | > 50 | > 50
CN(CCC/N=C/c1cc(Cl)ccc1O)CCC/N=C/c1cc(Cl)ccc1O | > 50 | > 50 | > 50 | > 50 | > 50 | > 50 | > 50
Oc1ccc(Cl)cc1/C=N/CCCN1CCOCC1 | > 50 | > 50 | > 50 | > 50 | > 50 | > 50 | 18.5 (≈ 65.4 µM)
Oc1ccc(Cl)cc1/C=N/C1CCCCC1 | 12.5 (≈ 52.6 µM) | > 50 | 48.6 (≈ 204 µM) | > 50 | > 50 | > 50 | 25 (≈ 105 µM)
Oc1ccc(CC/N=C/c2cc(Cl)ccc2O)cc1 | 3.1 (≈ 11.2 µM) | > 50 | > 50 | > 50 | 48.5 (≈ 176 µM) | > 50 | 1.8 (≈ 6.53 µM)
CC1(C)CC(/N=C/c2cc(Cl)ccc2O)CC(C)(C)N1 | 40.5 (≈ 137 µM) | > 50 | > 50 | > 50 | > 50 | > 50 | > 50
CN(C)CCC/N=C/c1cc(Cl)ccc1O | > 50 | > 50 | > 50 | > 50 | > 50 | > 50 | > 50
Oc1ccc(Cl)cc1/C=N/CC/N=C/c1cc(Cl)ccc1O | 2.8 (≈ 8.3 µM) | > 50 | > 50 | > 50 | > 50 | > 50 | > 50
Oc1ccc(Cl)cc1/C=N/Cc1ccccc1 | 3.2 (≈ 13 µM) | > 50 | 3.1 (≈ 12.6 µM) | > 50 | > 50 | > 50 | > 50
CC1(/N=C/c2cc(Cl)ccc2O)CCC(C(C)(C)/N=C/c2cc(Cl)ccc2O)CC1 (stereo unspecified) | > 50 | > 50 | > 50 | > 50 | > 50 | > 50 | > 50
OCC/N=C/c1cc(Cl)ccc1O | > 50 | 12.5 (≈ 62.6 µM) | > 50 | > 50 | > 50 | > 50 | 15.5 (≈ 77.6 µM)
Oc1ccc(Cl)cc1/C=N/CCC/N=C/c1cc(Cl)ccc1O | 4.5 (≈ 12.8 µM) | > 50 | 5 (≈ 14.2 µM) | > 50 | > 50 | > 50 | > 50
CC(=O)N1CCN(c2ccc(OC[C@H]3CO[C@](Cn4ccnc4)(c4ccc(Cl)cc4Cl)O3)cc2)CC1 [KETOCONAZOLE] | > 50 | 3.9 (≈ 7.34 µM) | > 50 | 3.9 (≈ 7.34 µM) | > 50 | 7.8 (≈ 14.7 µM) | > 50
Oc1ccc(Cl)cc1/C=N/CCCCCC/N=C/c1cc(Cl)ccc1O | > 50 | > 50 | > 50 | > 50 | > 50 | > 50 | > 50
CC(C/N=C/c1cc(Cl)ccc1O)/N=C/c1cc(Cl)ccc1O (stereo unspecified) | 3.6 (≈ 10.2 µM) | > 50 | 4.9 (≈ 14 µM) | > 50 | 1.8 (≈ 5.12 µM) | > 50 | > 50
Oc1ccc(Cl)cc1/C=N/Cc1ccco1 | 5.2 (≈ 22.1 µM) | > 50 | 5.7 (≈ 24.2 µM) | > 50 | 49.8 (≈ 211 µM) | > 50 | > 50
Oc1ccc(Cl)cc1/C=N/Cc1ccc(F)cc1 | 2.8 (≈ 10.6 µM) | > 50 | 1.6 (≈ 6.07 µM) | > 50 | 45.2 (≈ 171 µM) | 47.5 (≈ 180 µM) | 3.4 (≈ 12.9 µM)
CCN(CC)CCC/N=C/c1cc(Cl)ccc1O | > 50 | > 50 | > 50 | > 50 | > 50 | > 50 | > 50
Oc1ccc(Cl)cc1/C=N/CC1CCCCC1 | > 50 | > 50 | > 50 | > 50 | > 50 | > 50 | > 50
Oc1ccc(Cl)cc1/C=N/CC1CCCC(C/N=C/c2cc(Cl)ccc2O)C1 (stereo unspecified) | > 50 | > 50 | > 50 | > 50 | > 50 | > 50 | > 50
Oc1ccc(Cl)cc1/C=N/CCN1CCNCC1 | > 50 | > 50 | > 50 | > 50 | > 50 | > 50 | 22.5 (≈ 84 µM)
Oc1ccc(Cl)cc1/C=N/C1CCN(Cc2ccccc2)CC1 | > 50 | > 50 | > 50 | > 50 | > 50 | > 50 | > 50
O=[N+]([O-])c1ccc(/N=C/c2cc(Cl)ccc2O)cc1 | > 50 | > 50 | > 50 | > 50 | > 50 | > 50 | 18.5 (≈ 66.9 µM)
NC[C@H]1O[C@H](O[C@H]2[C@H](O)[C@@H](O[C@H]3O[C@H](CO)[C@@H](O)[C@H](N)[C@H]3O)[C@H](N)C[C@@H]2N)[C@H](O)[C@@H](O)[C@@H]1O [KANAMYCIN] | 3.9 (≈ 8.05 µM) | > 50 | 3.9 (≈ 8.05 µM) | > 50 | 0.39 (≈ 0.805 µM) | > 50 | 1 (≈ 2.06 µM)
Oc1ccc(Cl)cc1/C=N/CCNCC/N=C/c1cc(Cl)ccc1O | 32.5 (≈ 85.5 µM) | > 50 | > 50 | > 50 | > 50 | > 50 | > 50
CCOC(=O)N1CCC(/N=C/c2cc(Cl)ccc2O)CC1 | > 50 | > 50 | > 50 | > 50 | > 50 | > 50 | > 50
